Reference: US20180116933A1, “ANTI-OXIDATIVE OR ANTI-AGING COMPOSITION CONTAINING 5-ADAMANTAN-1-YL-N-(2,4-DIHYDROXYBENZYL)-2,4-DIMETHOXYBENZAMIDE” (Amorepacific Corporation, priority 2015, published 2018)

Experiments:
[1] = DPPH free radical scavenging evaluation; type: biochemical; conditions: 0 to 200 μg/ml, DPPH 0.2 mM in methanol, 30 minutes, absorbance 517 nm (FIG. 2)
Experimental: The DPPH free radical scavenging evaluation method was performed as follows.
In 5-adamantan-1-yl-N-(2,4-dihydroxybenzyl)-2,4-dimethoxybenzamide (referred to as ‘AP736’ in FIG. 2) prepared in Example, a reaction product adjusted to a concentration of from 0 to 200 μg/ml and a methanol solution of DPPH (0.2 mM) were incubated for 30 minutes. The absorbance of the solution was measured at 517 nm. The scavenging ability was expressed by the value obtained by comparing the absorbance of the solution to that (100%) of the control DPPH solution in % as presented in the following Mathematical Formula 1.

[2] = tested on: matrix metalloprotease-1 (MMP-1); assay: MMP-1 assay: UV-induced MMP-1 expression in HS68 human fibroblasts (MMP-1 ELISA kit); type: cell-based; conditions: UV-irradiated HS68 cells, 0.1, 0.5, and 1 μM, 48 hours (FIG. 3)
Experimental: In order to confirm the anti-aging effect of the sample, an experiment to see how much 5-adamantan-1-yl-N-(2,4-dihydroxybenzyl)-2,4-dimethoxybenzamide can inhibit the expression of matrix metalloprotease-1 (MMP-1) to be induced by ultraviolet (UV) rays was performed.
Human fibroblasts (HS68 cells, purchased from ATCC (Rockville, Md., USA)) were plated on a well plate at a density of 7.5×10^4 cells/well, then incubated in DMEM (Dulbecco's Modified Eagle's Medium) containing 10% FBS for 24 hours, then washed with PBS (phosphate-buffered saline), then 0.5 ml of PBS was added thereto, and the expression of MMP-1 was induced by irradiating the resultant incubated cells with ultraviolet rays. After changing to Serum-Free DMEM, the resultant was treated with 5-adamantan-1-yl-N-(2,4-dihydroxybenzyl)-2,4-dimethoxybenzamide (referred to as ‘AP736’ in FIG. 3) prepared in Example. The amount of the supernatant obtained after incubation for a certain period of time (48 hours) was measured by using an MMP-1 ELISA kit.
In other words, HS68 cells of human dermal fibroblasts were treated with ultraviolet rays to increase the expression of MMP-1, and the resulting HS68 cells were then treated with each sample to see whether the expression of MMP-1 decreased. The experimental results are illustrated in FIG. 3. […]

[3] = tested on: Raw 264.7 cells; assay: Cytotoxicity test (MTT method) in Raw 264.7 cells; type: cell-based
Experimental: RAW264.7 cells (obtained from ATCC (Rockville, Md., USA) as a murine macrophage cell line) were incubated in RPMI 1640 medium supplemented with FBS (10% heat-inactivated fetal bovine serum; Gibco, Grand Island, N.Y., USA), glutamine, antibiotics (penicillin and streptomycin) at 37° C. and 5% CO2.
In all experiments, cells were detached with a cell scraper. When cells were incubated at a concentration of 2×10^6 cells/mL in the experiment, the percentage of dead cells was 1% or less (confirmed by a trypan blue dye exclusion method).
In order to determine the appropriate concentration of extract treatment for anti-inflammatory evaluation of 5-adamantan-1-yl-N-(2,4-dihydroxybenzyl)-2,4-dimethoxybenzamide, the cytotoxicity of 5-adamantan-1-yl-N-(2,4-dihydroxybenzyl)-2,4-dimethoxybenzamide at each concentration was evaluated in the cells used in the experiments.
Raw 264.7 cells in the subculture were plated on a well plate at a density of […]. After 18 hours of cell incubation, the cells were subjected to a sample treatment so that the concentration of 5-adamantan-1-yl-N-(2,4-dihydroxybenzyl)-2,4-dimethoxybenzamide (referred to as ‘AP736’ in FIG. 1) was from 0 to 30 μM. The cells were incubated for 8 hours or 24 hours in an incubator. The cytotoxic effect was evaluated by the conventional MTT method. Before the last 3 hours of incubation, 10 μL of MTT {3-[4,5-dimethylthiazol-2-yl]-2,5-diphenyltetrazolium bromide} solution (10 mg/mL in phosphate-buffered saline, pH 7.4) was added to each well. To each well, 15% SDS (sodium dodecyl sulfate) was added to terminate the reaction, and the formazan crystal was then dissolved therein. Thereafter, the absorbance at 570 nm was measured on a microplate reader.

COc1cc(OC)c(C23CC4CC(CC(C4)C2)C3)cc1C(=O)NCc1ccc(O)cc1O [AP736, 5-adamantan-1-yl-N-(2,4-dihydroxybenzyl)-2,4-dimethoxybenzamide]
percentage of DPPH radical scavenging activity [1]: increases
expression of MMP-1 [2]: tended to decrease
cell viability ([3]; 10 μM, 8 hours): about 100%
cell viability ([3]; 10 μM, 24 hours): about 100%
cell viability ([3]; 20 μM, 8 hours): about 100%
cell viability ([3]; 20 μM, 24 hours): about 100%
cell viability ([3]; 30 μM, 24 hours): about 80%
